Consider 6 compounds from patent US7335674B2, “Benzothiazole-4,7-diones and benzoxazole-4,7-diones with substituents in position 5 or 6 and method for production thereof” (Societe de Conseils de Recherches et d'Applications …, priority 2003, dated 2008).

In data set [1] the test system is DU145 (human prostate cancer cells). As to the kind of experiment: Antiproliferative activity, WST1 colorimetric test, DU145. Format: cell-based. The note with it: DU-145, treated 96 hours, up to 10 μM, read-out: IC50 on the cell proliferation of the DU-145 lines. How it is done:
(§1) iii) Characterization of the Antiproliferative Activity:
(§2) By way of example, the effect of a treatment on two human cell lines Mia-Paca2 and DU145 by the compounds of the examples described previously will be studied. The cell lines DU145 (human prostate cancer cells) and Mia-PaCa2 (human pancreas cancer cells) were acquired from the American Tissue Culture Collection (Rockville, Md., USA). The cells placed in 80 μl of Dulbecco's Modified Eagle's medium (Gibco-Brl, Cergy-Pontoise, France) completed with 10% foetal calf serum inactivated by heating (Gibco-Brl, Cergy-Pontoise, France), 50,000 units/l of penicillin and 50 mg/l of streptomycin (Gibco-Brl, 10378-057, Cergy-Pontoise, France), and 2 mM of glutamine (Gibco-Brl, Cergy-Pontoise, France) were seeded on a 96-well plate on day 0. The cells were treated on day 1 for 96 hours with increasing concentrations of each of the compounds to be tested up to 10 μM. At the end of this period, quantification of cell proliferation is evaluated by a colorimetric test based on the cleavage of the tetrazolium salt WST1 by the mitochondrial dehydrogenases in viable cells leading to the formation of formazan (Boehringer Mannheim, Meylan, France). These tests are carried out in duplicate with 8 determinations per concentration tested. For each compound to be tested, the values included in the linear part of the sigmoid were retained for a linear regression analysis and used to estimate the inhibitory concentration IC50. The products are solubilized in dimethylsulphoxide (DMSO) at 10^−2 M and finally used in culture with 0.1% DMSO.

Data set [2] deals with Mia-Paca2 (human pancreas cancer cells). As to the kind of experiment: Antiproliferative activity, WST1 colorimetric test, Mia-PaCa2. The note with it: MIA PaCa-2, Mia-Paca2, treated 96 hours, up to 10 μM, read-out: IC50 on the cell proliferation of the Mia-Paca2 lines. Format: cell-based. How it is done: as §1, §2

With `CN(C)CCNC1=CC(=O)c2nc(-c3cccc(Br)c3)oc2C1=O` [Example 29, 2-(3-bromophenyl)-6-{[2-(dimethylamino)ethyl]amino}-1,3-benzoxazole4,7-dione], the melting point lay in the range of 174 to 175 °C. Also, in data set [1], the IC50 is ≤ 10 µM. The IC50 in data set [2] is ≤ 10 µM.

`CN(C)CCNC1=CC(=O)c2nc(Cc3c(Cl)cccc3Cl)oc2C1=O` [Example 42, 2-(2,6-dichlorobenzyl)-6-{[2-(dimethylamino)ethyl]amino}-1,3-benzoxazole4,7-dione] had a melting point of 172 to 173 °C. The IC50 in data set [1] is ≤ 10 µM. Moreover, the IC50 in data set [2] is ≤ 10 µM.

In the case of `CN(C)CCNC1=CC(=O)c2nc(-c3ccccc3Br)oc2C1=O` [Example 28, 2-(2-bromophenyl)-6-{[2-(dimethylamino)ethyl]amino}-1,3-benzoxazole4,7-dione], the melting point fell in the range of 147 to 148 °C. In addition, in data set [1], the IC50 was ≤ 10 µM. In data set [2], the IC50 was ≤ 10 µM.

`O=C1C=C(NCCN2CCCC2)C(=O)c2oc(-c3cc(F)c(F)c(F)c3)nc21` [Example 52, 6-[(2-pyrrolidin-1-ylethyl)amino]-2-(3,4,5-trifluorophenyl)-1,3-benzoxazole4,7-dione] yielded a melting point of 171 to 172 °C. Further, in data set [1], the IC50 was ≤ 10 µM. The IC50 in data set [2] is ≤ 10 µM.

In the case of `CN(C)CCNC1=CC(=O)c2oc(-c3cccc(Br)c3)nc2C1=O` [Example 17, 2-(3-bromophenyl)-5-{[2-(dimethylamino)ethyl]amino}-1,3-benzoxazole-4,7-dione], the melting point is 187 to 188 °C. For the same compound, the IC50 in data set [1] is ≤ 10 µM. Besides, the IC50 in data set [2] is ≤ 10 µM.

Regarding `O=C1C(NCCN2CCCC2)=CC(=O)c2oc(-c3cccc(Br)c3)nc21` [Example 24, 2-(3-bromophenyl)-5-[(2-pyrrolidin-1-ylethyl)amino]1,3-benzoxazole4,7-dione], the melting point lay within 169 to 170 °C. Moreover, in data set [1], the IC50 is ≤ 10 µM. In data set [2], the IC50 is ≤ 10 µM.
